{
  "source": "patent US20240122893A1",
  "about": "(priority 2021, published 2024)",
  "key": {"[1]": {"system": "MRC-5 cells", "settings": "human"}, "[2]": {"system": "SARS-CoV-2/USA/WI1/2020", "settings": "for protein concentration in bronchoalveolar lavage (BAL), measure of lung injury: 6 days post-infection; for SARS-CoV-2 spike protein distribution in the lungs: vs infected untreated animals"}, "[3]": {"system": "SARS-CoV-2", "assay": "CPE inhibition assay, SARS-CoV-2 strains in Vero C1008 cells", "format": "cell-based"}, "[4]": {"system": "Vero C1008 cells"}, "[5]": {"system": "HCoV-OC43", "assay": "microbe, parasite or virus in culture", "format": "cell-based, Human coronavirus OC43"}, "[6]": {"settings": "cited from earlier work"}, "[7]": {"system": "HCoV-OC43", "assay": "microbe, parasite or virus in culture", "settings": "Betacoronavirus 1, OC43, MRC5, read-out: IC50, median inhibitory concentration"}, "[8]": {"system": "SARS-CoV-2/USA/WI1/2020", "description": "Flow cytometry: Lungs were minced and incubated at 37° C. in an enzyme cocktail of RPMI containing 2.4 mg/ml collagenase I and 20 μg/ml DNase (Invitrogen), then mashed through a 70-μm nylon cell strainer (BD Falcon). […] For analysis immediately ex vivo, cells were washed once in PBS and immediately stained for viability with Biolegend Live/Dead Zombie NIR Fixable Viability Dye and Fc Block for 10 min at room temperature. Cell surface staining was performed in 100 uL of 20% BD Horizon™ Brilliant Stain Buffer+ PBS with surface stain antibody cocktail for 20 min at room temperature. Cells were fixed and permeabilized with eBioscience™ FoxP3/Transcription Factor Staining kit 1× Fixation/Permeabilization reagent overnight at 4° C. Cells were washed with 1× Permeabilization/Wash buffer. Intracellular staining (ICS) was performed in 100 uL 1× Permeabilization/Wash buffer with ICS antibody cocktail for 45 min at room temperature. Cells were washed once with Permeabilization/Wash buffer then resuspended in Permeabilization/Wash buffer for acquisition by flow. Samples were run on a 3 laser Cytek Aurora spectral flow cytometer. FCS files were analyzed using Flowjo v10 (10.6.2.) software.\nFlow cytometry. Lungs were minced and incubated at 37° C. in an enzyme cocktail of RPMI containing 2.4 mg/mi collagenase I and 20 μg/ml DNase (Invitrogen), then mashed through a 70-μm nylon cell strainer (BD Falcon). […] For analysis immediately ex vivo, cells were washed once in PBS and immediately stained for viability with Biolegend Live/Dead Zombie NIR Fixable Viability Dye and Fc Block for 10 min at room temperature. Cell surface staining was performed in 100 μL of 20% BD Horizon™ Brilliant Stain Buffer+ PBS with surface stain antibody cocktail for 20 min at room temperature. Cells were fixed and permeabilized with eBioscience™ FoxP3/Transcription Factor Staining kit 1× Fixation/Permeabilization reagent overnight at 4° C. Cells were washed with 1× Permeabilization/Wash buffer. Intracellular staining (ICS) was performed in 100 μL 1× Permeabilization/Wash buffer with ICS antibody cocktail for 45 min at room temperature. Cells were washed once with Permeabilization/Wash buffer then resuspended in Permeabilization/Wash buffer for acquisition by flow. […] For the myeloid flow cytometry functional staining, the cells were incubated with protein transport inhibitors for 4 h. Samples were run on a 3 laser Cytek Aurora spectral flow cytometer or a FACSAria II spectral flow cytometer (BD). FCS files were analyzed using Flowjo v10.6.2 software (BD). […] High-dimensional unbiased analysis of cell phenotypes was performed using Flowjo plugins DownSample v3 and UMAP."}, "[9]": {"system": "SARS-CoV-2", "assay": "organism not typed", "settings": "Caco-2, read-out: IC50, reduction of viral RNA", "description": "vRNA determination: Zymo Quick-RNA Viral 96 Kit (Zymo Research) was used to isolate RNA from cell supematants according to the manufacturer's protocol. cDNA synthesis was performed using qScript cDNA Supermix containing randomhexamers and oligo-dT primers following the manufacture's protocol (Quanta Biosciences). Real-time PCR was performed in technical triplicate for each sample using TaqMan Fast Advanced Master Mix (Applied Biosystems) on a StepOne Plus Real Time PCR machine (Applied Biosystems). […] The cycling parameters were as follows: (i) 2 min at 50° C.; (ii) 2 min at 95° C.; and (iii) 45 cycles at 95° C. for 3s and 55° C. for 30 s. Molecular standard curves were generated using serial dilutions of a plasmid containing the complete SARS-CoV-2N gene (Integrated DNA Technologies, Catalog #10006625).\nViral RNA determination. Zymo Quick-RNA Viral 96 Kit (Zymo Research) was used to isolate RNA from cell supematants according to the manufacturer's protocol. cDNA synthesis was performed using qScript cDNA Supermix containing random hexamers and oligo-dT primers following the manufacture's protocol (Quanta Biosciences). Real-time quantitative reverse transcription\nPCR (RT-qPCR) was performed in technical triplicate for each sample using TaqMan Fast Advanced Master Mix (Applied Biosystems) on a StepOne Plus Real Time PCR machine (Applied Biosystems). […]"}, "[10]": {"system": "SARS-CoV-2", "settings": "treatment of cells with NRF2 agonists; cited from earlier work"}, "[11]": {"settings": "30 mg/kg daily oral gavage, vs untreated infected controls"}, "[12]": {"settings": "after PMA/ionomycin stimulation"}},
  "note": "Where a name gives a salt, the structure may show the parent alone. Read-outs that look alike come from different tables or passages of the source.",
  "data": [
    {"compound": "C[S+]([O-])CCCCN=C=S", "note": "(centres unmarked) [SFN, sulforaphane]", "values": [
      {"measurement": "TD50, median cytotoxic dose", "setting": "[1]", "result": 83, "unit": "µM"},
      {"measurement": "bodyweight loss, less than infected untreated controls", "setting": "[2]; 30 mg/kg daily oral gavage from one day before inoculation, day 6 post inoculation", "result": 7.5, "unit": "%"},
      {"measurement": "protein concentration in bronchoalveolar lavage (BAL), measure of lung injury", "setting": "[2]; [11]", "result": "significantly lower"},
      {"measurement": "protein concentration in bronchoalveolar lavage (BAL), measure of lung injury", "setting": "[2]; 30 mg/kg daily oral gavage, vs untreated infected controls, listed as sulforaphane", "result": "lower"},
      {"measurement": "reduction in lung viral load, total SARS-CoV-2 N protein copies, not normalized to Pol2Ra", "setting": "[2]; 30 mg/kg daily oral gavage, P=0.1308", "result": 1.46, "unit": "log"},
      {"measurement": "weight loss compared to controls", "setting": "[2]; 30 mg/kg daily oral gavage, day 6 post inoculation", "result": "lost significantly less weight"},
      {"measurement": "reduction in lung viral load, SARS-CoV-2 N protein copies normalized to Pol2Ra", "setting": "[2]; 30 mg/kg daily oral gavage, vs infected untreated controls", "result": 1.5, "unit": "log"},
      {"measurement": "viral burden in BAL / alveolar fluid (qPCR)", "setting": "[2]; [11]", "result": "significantly lower"},
      {"measurement": "histopathology score of lung inflammation", "setting": "[2]; 30 mg/kg daily, untreated controls 6/16", "result": "1/16"},
      {"measurement": "lung viral load, treated vs controls (Example 1)", "setting": "[2]; daily oral gavage from one day before inoculation", "result": "no statistically significant differences"},
      {"measurement": "reduction of viral replication in the lungs", "setting": "[2]; prophylactic SFN treatment", "result": "1.5 orders of magnitude"},
      {"measurement": "SARS-CoV-2 spike protein distribution in the lungs", "setting": "[2]", "result": "focal distribution"},
      {"measurement": "SARS-CoV-2 spike protein distribution in the lungs", "setting": "[2]; listed as sulforaphane", "result": "smaller area"},
      {"measurement": "pulmonary pathology (H&E lung sections)", "setting": "[2]; vs infected untreated mice", "result": "lower degree of pulmonary pathology"},
      {"measurement": "IC50", "setting": "[3]; 614G+ clinical strain USA/DCHP-7/2020 (DC)", "result": 29, "unit": "µM"},
      {"measurement": "IC50", "setting": "[3]; 614G+ clinical strain USA/MDHP-20/2020 (MD)", "result": 28, "unit": "µM"},
      {"measurement": "IC50", "setting": "[3]; Severe acute respiratory syndrome coronavirus 2, Vero C1008, 614G+ clinical strain USA/DCHP-7/2020 (DC)", "result": 51, "unit": "µM"},
      {"measurement": "IC50", "setting": "[3]; Severe acute respiratory syndrome coronavirus 2, Vero C1008, 614G+ clinical strain USA/MDHP-20/2020 (MD)", "result": 48, "unit": "µM"},
      {"measurement": "IC50", "setting": "[3]; Severe acute respiratory syndrome coronavirus 2, Vero C1008, 24 h, SARS-CoV-2-Wuhan-Hu-1, established infection, drug added 24 h after virus, read-out: IC50, median inhibitory concentration", "result": 13, "unit": "µM"},
      {"measurement": "IC50", "setting": "[3]; Severe acute respiratory syndrome coronavirus 2, Vero C1008, both reference strains, Wuhan-Hu-1 and USA-WA1/2020 (Example 1)", "result": "15 to 17", "unit": "µM"},
      {"measurement": "IC50", "setting": "[3]; Severe acute respiratory syndrome coronavirus 2, Vero C1008, read-out: IC50, median inhibitory concentration, SARS-CoV-2-Wuhan-Hu-1, Vero C1008, drug 1-2 h before virus", "result": 12, "unit": "µM"},
      {"measurement": "IC50", "setting": "[3]; Severe acute respiratory syndrome coronavirus 2, Vero C1008, reference strain USA-WA1/2020, drug 1 h before virus (Example 2)", "result": 31, "unit": "µM"},
      {"measurement": "TD50, median cytotoxic dose, range over assays", "setting": "[4]; African green monkey, human", "result": "73 to 89", "unit": "µM"},
      {"measurement": "IC50", "setting": "[5]; Betacoronavirus 1, OC43, Vero C1008, 24 h, Vero C1008, established infection, drug added 24 h after virus, read-out: IC50, median inhibitory concentration", "result": 18, "unit": "µM"},
      {"measurement": "IC50", "setting": "[5]; Betacoronavirus 1, OC43, Vero C1008, Vero C1008, drug 24 h before virus, drug washed out and then virus added, read-out: IC50, median inhibitory concentration", "result": 21, "unit": "µM"},
      {"measurement": "IC50", "setting": "[5]; Betacoronavirus 1, OC43, Vero C1008, read-out: IC50, median inhibitory concentration, Vero C1008, drug added 1-2 h before virus", "result": 10, "unit": "µM"},
      {"measurement": "tolerability", "setting": "[6]; SFN-rich broccoli sprouts corresponding to 50 to 400 μmol SFN daily", "result": "well tolerated without clinically significant adverse effects"},
      {"measurement": "elimination from plasma", "setting": "[6]; in vivo", "result": "rapidly eliminated from plasma"},
      {"measurement": "IC50", "setting": "[7]", "result": 18, "unit": "µM"},
      {"measurement": "B cells in the spleen and Ly6G+ neutrophils in the lung", "setting": "[8]; Example 1", "result": "significantly higher expansion"},
      {"measurement": "CCR2 expression on alveolar macrophages", "setting": "[8]; Example 1", "result": "reduced"},
      {"measurement": "CD86 on lung-resident macrophages", "setting": "[8]; Example 1", "result": "increased"},
      {"measurement": "IL-10 and TGFβ produced by macrophages", "setting": "[8]; Example 1", "result": "increased"},
      {"measurement": "Ki67 and MHCII on CD8 T cells immediately ex vivo", "setting": "[8]; Example 1", "result": "upregulation"},
      {"measurement": "PD-L1 expression on macrophages", "setting": "[8]; Example 1", "result": "lower levels"},
      {"measurement": "frequency of B cells, cytotoxic NK cells and CD8 T cells", "setting": "[8]; Example 1", "result": "increased frequency"},
      {"measurement": "expression of activation markers CD80, CD86, PD-L1, MHC-II on lung alveolar and interstitial macrophages", "setting": "[8]; Example 2", "result": "lower expression"},
      {"measurement": "PD1, MHC-II and Ki-67 on lung CD8+ and CD4+ T cells, directly ex vivo", "setting": "[8]; Example 2, P<0.05", "result": "significantly decreased"},
      {"measurement": "frequencies of lung alveolar and interstitial macrophages producing IL-10, IL-1β, TNF-α, TGF-β", "setting": "[8]; Example 2, P<0.05", "result": "significantly lower frequencies"},
      {"measurement": "infection-induced increase of IL-1β in alveolar macrophages", "setting": "[8]; P<0.0001", "result": "abrogated"},
      {"measurement": "CPT1a+VDAC+ myeloid cells in lung", "setting": "[8]; P=0.01", "result": "significantly decreased"},
      {"measurement": "percentage of monocytes and CD11c+ dendritic cells out of total CD45+ immune cells in the lungs", "setting": "[8]; P=0.01", "result": "significantly decreased"},
      {"measurement": "IFN-γ and IL-10 from lung CD4+ T cells", "setting": "[8]; [12]", "result": "lower levels"},
      {"measurement": "frequency of IL-4 and IL-17 in CD4+ T cells", "setting": "[8]; [12]", "result": "not significantly altered"},
      {"measurement": "TNF-α in alveolar macrophages and IFN-γ in T cells", "setting": "[8]; mouse, in vivo", "result": "reduction"},
      {"measurement": "recruitment of myeloid cells (monocytes, dendritic cells) into the lungs", "setting": "[8]; vs infected untreated mice", "result": "significantly reduced"},
      {"measurement": "IC50", "setting": "[9]", "result": 2.4, "unit": "µM"}
    ]},
    {"compound": "C=C(CC(=O)OCCCCCCCC)C(=O)O", "note": "[4-octyl-itaconate]", "values": [
      {"measurement": "replication of SARS-CoV-2 in vitro", "setting": "[10]", "result": "inhibited replication"}
    ]},
    {"compound": "COC(=O)/C=C/C(=O)OC", "note": "[dimethyl fumarate]", "values": [
      {"measurement": "replication of SARS-CoV-2 in vitro", "setting": "[10]", "result": "inhibited replication"}
    ]},
    {"compound": "CCC(CC)COC(=O)[C@H](C)N[P@](=O)(OC[C@H]1O[C@@](C#N)(c2ccc3c(N)ncnn23)[C@H](O)[C@@H]1O)Oc1ccccc1", "note": "[RDV, remdesivir, reference compound]", "values": [
      {"measurement": "IC50", "setting": "[3]; Severe acute respiratory syndrome coronavirus 2, Vero C1008, SARS-CoV-2, FIG. 2E, Vero C1008, drug 1 h before virus, read-out: IC50", "result": 4, "unit": "µM"},
      {"measurement": "IC50", "setting": "[3]; Severe acute respiratory syndrome coronavirus 2, Vero C1008, four strains of SARS-CoV-2 (Example 1), read-out: IC50", "result": "4 to 9", "unit": "µM"},
      {"measurement": "TD50, median cytotoxic dose", "setting": "[4]; Vero C1008, drug added 1-2 h before virus (HCoV-OC43 assay)", "result": 142, "unit": "µM"},
      {"measurement": "IC50", "setting": "[5]; Betacoronavirus 1, OC43, Vero C1008, drug added 1-2 h before virus, read-out: IC50, median inhibitory concentration", "result": 22, "unit": "µM"}
    ]}
  ]
}
